Patent US10968210B2, “Diamino-alkylamino-linked arylsulfonamide compounds with selective activity in voltage-gated sodium channels” (Merck Sharp & Dohme Corp., priority 2016, dated 2021)

Columns and labels:
[1] = molecular target: T1, human Nav 1.7 channels stably expressed in HEK 293 cells (Homo sapiens, UniProt Q15858); assay: IonWorks Quattro automated patch-clamp, inactivated state block of Nav 1.7; assay type: cell-based; conditions: double-pulse protocol, HEK 293 cells held at -100 mV, read-out: potency for the Nav 1.7 sodium ion channel (IC50, IonWorks)
T1 construct: expressed in transfected cells; host or cells: HEK 293
T1 sequence (Q15858 whole entry): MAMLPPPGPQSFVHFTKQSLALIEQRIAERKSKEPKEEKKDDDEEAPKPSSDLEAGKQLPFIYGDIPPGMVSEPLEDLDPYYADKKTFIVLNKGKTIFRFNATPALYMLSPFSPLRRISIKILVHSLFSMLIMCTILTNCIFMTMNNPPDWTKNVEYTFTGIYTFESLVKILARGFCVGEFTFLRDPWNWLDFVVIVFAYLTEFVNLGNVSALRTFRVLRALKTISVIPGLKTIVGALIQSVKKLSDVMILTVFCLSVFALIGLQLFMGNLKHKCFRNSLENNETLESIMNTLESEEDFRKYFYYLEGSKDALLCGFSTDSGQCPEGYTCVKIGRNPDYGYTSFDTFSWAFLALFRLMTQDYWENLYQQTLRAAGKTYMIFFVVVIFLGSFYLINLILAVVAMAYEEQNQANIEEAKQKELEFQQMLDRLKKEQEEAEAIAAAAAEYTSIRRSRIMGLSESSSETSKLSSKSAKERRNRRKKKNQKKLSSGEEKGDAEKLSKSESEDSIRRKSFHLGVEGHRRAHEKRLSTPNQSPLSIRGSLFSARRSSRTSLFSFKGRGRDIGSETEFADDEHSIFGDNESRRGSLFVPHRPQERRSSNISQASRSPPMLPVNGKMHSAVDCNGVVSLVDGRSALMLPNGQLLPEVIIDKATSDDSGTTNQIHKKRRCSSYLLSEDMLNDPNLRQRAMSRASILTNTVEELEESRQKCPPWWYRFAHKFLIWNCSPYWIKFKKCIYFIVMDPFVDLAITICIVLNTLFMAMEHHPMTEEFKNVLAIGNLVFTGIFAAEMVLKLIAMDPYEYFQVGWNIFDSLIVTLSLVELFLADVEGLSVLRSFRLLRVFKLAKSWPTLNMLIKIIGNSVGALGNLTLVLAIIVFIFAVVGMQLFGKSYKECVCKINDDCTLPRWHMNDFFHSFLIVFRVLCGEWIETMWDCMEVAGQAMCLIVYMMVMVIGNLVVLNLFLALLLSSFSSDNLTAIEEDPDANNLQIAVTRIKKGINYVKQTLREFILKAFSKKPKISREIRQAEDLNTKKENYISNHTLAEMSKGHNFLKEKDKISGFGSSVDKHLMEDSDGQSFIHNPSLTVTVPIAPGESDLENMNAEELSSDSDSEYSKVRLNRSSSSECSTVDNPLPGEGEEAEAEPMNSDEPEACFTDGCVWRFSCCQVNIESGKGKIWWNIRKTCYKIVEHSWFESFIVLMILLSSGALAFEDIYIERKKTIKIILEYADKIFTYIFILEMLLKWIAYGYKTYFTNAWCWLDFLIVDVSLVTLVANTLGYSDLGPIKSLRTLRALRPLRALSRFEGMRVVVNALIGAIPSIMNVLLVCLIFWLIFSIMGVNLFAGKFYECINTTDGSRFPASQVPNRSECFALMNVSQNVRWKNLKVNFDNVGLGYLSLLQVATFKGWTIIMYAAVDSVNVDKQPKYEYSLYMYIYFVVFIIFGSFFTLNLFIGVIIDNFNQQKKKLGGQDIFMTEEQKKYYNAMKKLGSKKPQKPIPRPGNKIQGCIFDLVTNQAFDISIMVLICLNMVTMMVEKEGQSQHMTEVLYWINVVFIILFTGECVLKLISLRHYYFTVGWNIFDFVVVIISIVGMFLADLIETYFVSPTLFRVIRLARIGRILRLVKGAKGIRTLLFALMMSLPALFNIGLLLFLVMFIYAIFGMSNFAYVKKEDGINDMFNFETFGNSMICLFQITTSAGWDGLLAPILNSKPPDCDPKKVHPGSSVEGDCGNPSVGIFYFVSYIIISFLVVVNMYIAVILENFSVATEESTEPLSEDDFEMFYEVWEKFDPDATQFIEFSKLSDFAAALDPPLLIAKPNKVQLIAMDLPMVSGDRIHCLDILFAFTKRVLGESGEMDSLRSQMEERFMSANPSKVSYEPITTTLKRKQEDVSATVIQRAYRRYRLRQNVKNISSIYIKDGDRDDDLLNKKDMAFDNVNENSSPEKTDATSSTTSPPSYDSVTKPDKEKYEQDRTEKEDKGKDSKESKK
Protocol: (§1) IonWorks® Experimental Procedure
(§2) Compounds were tested on human Nav 1.7 and Nav 1.5 channels stably expressed in HEK 293 cells. Sodium current measurements on IonWorks Quattro: An automated patch-clamp assay on the IonWorks Quattro platform (Molecular Devices) was used to measure state-dependent inhibition of human Nav 1.7 and Nav 1.5 channels. Cells were sealed on a planar substrate using the Population Patch Plate (PPC) technology. Electrical access was obtained using both nystatin and amphotericin. A double-pulse protocol was used for the determination of IC50 values for inactivated state block. Nav 1.7 and Nav 1.5 expressing cells were voltage clamped at −100 mV and −110 mV, respectively. A depolarizing prepulse to −10 mV (Nav 1.7) or −30 mV (Nav 1.5) for 1000 ms followed by a 10 ms repolarization to ˜100 mV (Nav1.7) or −110 mV (Nav 1.5) was given to generate fractional channel inactivation of ˜50%, followed by a 10 ms test pulse to −10 mV (Nav 1.7) or −30 mV (Nav 1.5) to measure peak current in control conditions and after compound addition. The following recording solutions were used (mM). External: 150 NaCl, 2 CaCl2, 5 KCl, 1 Mg Cl2, 10 HEPES, 12 Dextrose; internal: 120 CsF, 30 CsCl, 10 EGTA, 5 HEPES, 5 NaF, 2 MgCl2.
(§3) For all electrophysiology experiments, offline analysis was used to determine percent inhibition as a function of drug concentration. IC50 values were determined by fitting to the Hill equation.
(§4) The various compounds in Examples 1 through 4 and Tables 1 through 3 exemplified above were assayed for activity and selectivity using the foregoing IonWorks® technique. The results are reported in the following paragraph in a format expressing the identification of the compound with reference Example and compound (e.g. Ex 1-9 is Example 1, compound 9) followed by the observed potency in nM and the ratio of Nav1.7 potency: Nav1.5 potency as described here. Thus, Ex1-9: 1.7=65/ratio=641 identifies compound Example 1, compound 9 as having 65 nM potency for the Nav 1.7 sodium ion channel (as measured by IonWorks®) and a ratio of 641 Nav 1.7: Nav 1.5 potency, determined by IonWorks® measurement.

[2] = molecular target: T2, human Nav 1.5 channels stably expressed in HEK 293 cells (Homo sapiens, UniProt Q14524); assay: IonWorks Quattro automated patch-clamp, inactivated state block of Nav 1.5 (reported as ratio to Nav 1.7 potency); assay type: cell-based; conditions: selectivity for Nav 1.7 over Nav 1.5, both by IonWorks
T2 construct: expressed in transfected cells; host or cells: HEK 293
T2 sequence (Q14524 whole entry): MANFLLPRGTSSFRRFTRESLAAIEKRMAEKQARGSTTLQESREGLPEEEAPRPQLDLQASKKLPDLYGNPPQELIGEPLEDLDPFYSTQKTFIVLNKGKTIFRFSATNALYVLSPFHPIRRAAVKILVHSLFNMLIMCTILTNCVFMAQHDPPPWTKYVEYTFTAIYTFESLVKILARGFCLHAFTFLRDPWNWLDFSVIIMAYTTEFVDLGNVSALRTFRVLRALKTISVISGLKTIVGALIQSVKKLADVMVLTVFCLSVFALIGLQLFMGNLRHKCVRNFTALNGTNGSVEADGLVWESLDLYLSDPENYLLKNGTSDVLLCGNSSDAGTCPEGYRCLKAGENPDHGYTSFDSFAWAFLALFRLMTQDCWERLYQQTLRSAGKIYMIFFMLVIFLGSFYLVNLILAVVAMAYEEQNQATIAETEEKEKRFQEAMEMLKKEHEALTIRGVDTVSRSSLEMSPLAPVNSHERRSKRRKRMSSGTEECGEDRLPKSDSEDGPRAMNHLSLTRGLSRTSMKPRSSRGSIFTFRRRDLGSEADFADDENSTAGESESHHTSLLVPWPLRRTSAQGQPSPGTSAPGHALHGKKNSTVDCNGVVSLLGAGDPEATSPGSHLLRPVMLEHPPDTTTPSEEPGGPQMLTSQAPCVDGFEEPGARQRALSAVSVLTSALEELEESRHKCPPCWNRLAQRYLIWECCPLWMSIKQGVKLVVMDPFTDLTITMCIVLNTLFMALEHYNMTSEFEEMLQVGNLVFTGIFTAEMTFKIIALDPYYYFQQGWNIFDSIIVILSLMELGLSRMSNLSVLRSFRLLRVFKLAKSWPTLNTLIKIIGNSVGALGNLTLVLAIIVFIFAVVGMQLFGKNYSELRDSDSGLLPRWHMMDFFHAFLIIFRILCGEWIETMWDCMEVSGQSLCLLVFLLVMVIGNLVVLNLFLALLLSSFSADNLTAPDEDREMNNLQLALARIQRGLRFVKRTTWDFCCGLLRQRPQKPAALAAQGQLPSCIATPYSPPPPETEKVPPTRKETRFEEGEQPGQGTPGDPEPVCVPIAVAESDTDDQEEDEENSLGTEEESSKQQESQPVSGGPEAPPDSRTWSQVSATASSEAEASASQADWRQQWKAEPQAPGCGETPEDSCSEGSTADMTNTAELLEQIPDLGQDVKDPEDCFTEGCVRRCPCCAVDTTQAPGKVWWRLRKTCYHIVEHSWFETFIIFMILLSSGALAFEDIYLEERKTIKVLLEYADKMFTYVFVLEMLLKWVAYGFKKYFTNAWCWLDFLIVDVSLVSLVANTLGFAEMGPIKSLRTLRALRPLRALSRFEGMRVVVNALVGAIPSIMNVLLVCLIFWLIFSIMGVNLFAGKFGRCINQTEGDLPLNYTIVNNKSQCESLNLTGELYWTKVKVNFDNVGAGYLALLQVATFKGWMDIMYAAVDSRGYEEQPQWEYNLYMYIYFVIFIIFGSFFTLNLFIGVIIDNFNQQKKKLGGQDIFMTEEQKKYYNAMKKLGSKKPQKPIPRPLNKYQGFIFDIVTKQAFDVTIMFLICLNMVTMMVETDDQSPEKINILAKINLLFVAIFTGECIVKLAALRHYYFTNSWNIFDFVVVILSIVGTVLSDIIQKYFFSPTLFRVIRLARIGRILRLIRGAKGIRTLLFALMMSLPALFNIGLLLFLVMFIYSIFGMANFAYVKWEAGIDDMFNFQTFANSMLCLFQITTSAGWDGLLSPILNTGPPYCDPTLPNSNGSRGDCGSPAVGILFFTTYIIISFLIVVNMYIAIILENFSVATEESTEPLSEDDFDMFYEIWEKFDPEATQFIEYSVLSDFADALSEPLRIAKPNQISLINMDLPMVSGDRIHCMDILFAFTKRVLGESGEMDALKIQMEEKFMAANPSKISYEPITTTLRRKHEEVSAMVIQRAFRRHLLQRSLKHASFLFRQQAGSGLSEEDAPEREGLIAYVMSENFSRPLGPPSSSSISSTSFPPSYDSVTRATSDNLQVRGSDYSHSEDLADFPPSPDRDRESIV
Protocol: as §1, §2, §3, §4

SMILES | IC50 [1] [nM] | ratio of Nav 1.7 : Nav 1.5 potency (IonWorks) [2]
O=S(=O)(Nc1nccs1)c1cc(Cl)c(NCCCCNC2CNCC(c3ccccc3)C2)cc1F (centres unmarked) [Ex 1-31, 5-chloro-2-fluoro-4-({4-[(5-phenylpiperidin-3-yl)amino]butyl}amino)-N-1,3-thiazol-2-ylbenzenesulfonamide] | 37 | > 890
COc1cccc(CC2(CNCCCCNc3cc(F)c(S(=O)(=O)Nc4nccs4)cc3Cl)CCCN2)c1 (centres unmarked) [Ex 1-34, 5-chloro-2-fluoro-4-{[4-({[2-(3-methoxy-benzyl)-pyrrolidin-2-yl]methyl}-amino)-butyl]amino}-N-1,3-thiazol-2-yl-benzenesulfonamide] | 64 | > 510
N[C@@H]1CCCN(CCCCNc2cc(F)c(S(=O)(=O)Nc3nccs3)cc2Cl)C1 [Ex 1-35, 4-({4-[(3R)-3-aminopiperidin-1-yl]butyl}amino)-5-chloro-2-fluoro-N-1,3-thiazol-2-ylbenzenesulfonamide] | 190 | > 170
N[C@@H]1CCN(CCCCNc2cc(F)c(S(=O)(=O)Nc3nccs3)cc2Cl)C1 [Ex 1-36, 4-({4-[(3R)-3-aminopyrrolidin-1-yl]butyl}amino)-5-chloro-2-fluoro-N-1,3-thiazol-2-ylbenzenesulfonamide] | 18 | > 1830
N[C@H]1CCCN(CCCCNc2cc(F)c(S(=O)(=O)Nc3nccs3)cc2Cl)C1 [Ex 1-37, 4-({4-[(3S)-3-aminopiperidin-1-yl]butyl}amino)-5-chloro-2-fluoro-N-1,3-thiazol-2-ylbenzenesulfonamide] | 97 | > 340
O=S(=O)(Nc1nccs1)c1cc(Cl)c(NCCCCN2CCCC3(CCCN3)C2)cc1F (centres unmarked) [Ex 1-39, 5-chloro-4-{[4-(1,7-diazaspiro[4.5]dec-7-yl)butyl]amino}-2-fluoro-N-1,3-thiazol-2-ylbenzenesulfonamide] | 130 | > 250
NC[C@H]1CCCN1CCCCNc1cc(F)c(S(=O)(=O)Nc2nccs2)cc1Cl [Ex 1-41, 4-({4-[(2R)-2-(aminomethyl)pyrrolidin-1-yl]butyl}amino)-5-chloro-2-fluoro-N-1,3-thiazol-2-ylbenzenesulfonamide] | 48 | > 690
NCC1CCN(CCCCNc2cc(F)c(S(=O)(=O)Nc3nccs3)cc2Cl)C1 (centres unmarked) [Ex 1-47, 4-({4-[3-(aminomethyl)pyrrolidin-1-yl]butyl}amino)-5-chloro-2-fluoro-N-1,3-thiazol-2-ylbenzenesulfonamide] | 22 | > 1500
O=S(=O)(Nc1nccs1)c1cc(Cl)c(NCCCCN2CCC3CNCC3C2)cc1F (centres unmarked) [Ex 1-48, 5-chloro-2-fluoro-4-{[4-(octahydro-5H-pyrrolo[3,4-c]pyridin-5-yl)butyl]amino}-N-1,3-thiazol-2-ylbenzenesulfonamide] | 23 | > 1434
NC1CCN(CCCCNc2cc(F)c(S(=O)(=O)Nc3nccs3)cc2Cl)CC1 [Ex 1-49, 4-{[4-(4-aminopiperidin-1-yl)butyl]amino}-5-chloro-2-fluoro-N-1,3-thiazol-2-ylbenzenesulfonamide] | 33 | > 1000
NCC1(c2ccccc2)CCN(CCCCNc2cc(F)c(S(=O)(=O)Nc3nccs3)cc2Cl)C1 (centres unmarked) [Ex 1-50, 4-({4-[3-(aminomethyl)-3-phenylpyrrolidin-1-yl]butyl}amino)-5-chloro-2-fluoro-N-1,3-thiazol-2-ylbenzenesulfonamide] | 46 | > 717
NCC1CN(CCCCNc2cc(F)c(S(=O)(=O)Nc3nccs3)cc2Cl)C1 [Ex 1-51, 4-({4-[3 (aminomethyl)azetidin-1-yl]butyl}amino)-5-chloro-2-fluoro-N-1,3-thiazol-2-ylbenzenesulfonamide] | 15 | > 2200
O=S(=O)(Nc1nccs1)c1cc(Cl)c(NCCCCN2CCC3CCC(C2)N3)cc1F (centres unmarked) [Ex 1-52, 5-chloro-4-{[4-(3,9-diazabicyclo[4.2.1]non-3-yl)butyl]amino}-2-fluoro-N-1,3-thiazol-2-ylbenzenesulfonamide] | 96 | > 343
O=S(=O)(Nc1nccs1)c1cc(Cl)c(NCCCCN2CCCNCC2)cc1F [Ex 1-53, 5-chloro-4-{[4-(1,4-diazepan-1-yl)butyl]-amino}-2-fluoro-N-1,3-thiazol-2-yl-benzenesulfonamide] | 79 | > 418
O=S(=O)(Nc1nccs1)c1cc(Cl)c(NC[C@H]2C[C@@H]3CN(C[C@@H]4CCCN4)C[C@@H]3C2)cc1F [Ex 6-8, 5-chloro-2-fluoro-4-[({(3aR,5R,6aS)-2-[(2S)-pyrrolidin-2-ylmethyl]octahydrocyclopenta[c]pyrrol-5-yl}methyl)amino]-N-1,3-thiazol-2-ylbenzenesulfonamide] | 39 | > 850
O=S(=O)(Nc1nccs1)c1cc(Cl)c(NCCCC(Cc2ccccc2)NC[C@@H]2CCCN2)cc1F (stereo partly drawn) [Ex 6-9, 5-chloro-2-fluoro-4-[(5-phenyl-4-{[(2S)-pyrrolidin-2-ylmethyl]amino}pentyl)amino]-N-1,3-thiazol-2-ylbenzenesulfonamide] | 17 | 1530
O=S(=O)(Nc1nccs1)c1ccc(NCCCCNC[C@@H]2CCCN2)c(C(F)(F)F)c1 [Ex 7-04, 4-[(4-{[(2S)-pyrrolidin-2-ylmethyl]amino}butyl)amino]-N-1,3-thiazol-2-yl-3-(trifluoromethyl)benzenesulfonamide] | 41 | > 800
O=S(=O)(Nc1nccs1)c1ccc(NCCCCNC[C@@H]2CCCN2)c(Cl)c1 [Ex 7-12, 3-chloro-4-[(4-{[(2S)-pyrrolidin-2-ylmethyl]amino}butyl)amino]-N-1,3-thiazol-2-ylbenzenesulfonamide] | 27 | > 1200
O=S(=O)(Nc1nccs1)c1cc(Cl)c(NCCCCNC[C@@H]2CC(F)(F)CN2)cc1F [Ex 8-2, (S)-5-chloro-4-((4-(((4,4-difluoropyrrolidin-2-yl)methyl)amino)butyl)amino)-2-fluoro-N-(thiazol-2-yl)benzenesulfonamide] | 59 | 460
O=S(=O)(Nc1nccs1)c1cc(Cl)c(NCCCCNC[C@@H]2C[C@@H](c3ccccc3)CN2)cc1F [Ex 8-4, 5-chloro-2-fluoro-4-{[4-({[(2S,4S)-4-phenyl-pyrrolidin-2-yl]methyl}-amino)butyl]amino}-N-1,3-thiazol-2-yl-benzenesulfonamide] | 32 | > 1030
O=S(=O)(Nc1nccs1)c1cc(Cl)c(NCCCCNC[C@@H]2C[C@H](Oc3ccccc3)CN2)cc1F [Ex 8-5, 5-chloro-2-fluoro-4-{[4-({[(2S,4S)-4-phenoxypyrrolidin-2-yl]methyl}amino)butyl]-amino}-N-1,3-thiazol-2-yl-benzenesulfonamide] | 40 | 425
N#C[C@H]1CN[C@H](CNCCCCNc2cc(F)c(S(=O)(=O)Nc3nccs3)cc2Cl)C1 [Ex 8-7, 5-chloro-4-{[4-({[(2S,4R)-4-cyanopyrrolidin-2-yl]-methyl}amino)butyl]amino}-2-fluoro-N-1,3-thiazol-2-ylbenzenesulfonamide] | 87 | > 380
O=S(=O)(Nc1nccs1)c1cc(Cl)c(NCCCCNC[C@H]2C[C@@H](c3ccccc3)CN2)cc1F [Ex 8-11, 5-chloro-2-fluoro-4-{[4-({[(2R,4S)-4-phenylpyrrolidin-2-yl]-methyl}amino)butyl]amino}-N-1,3-thiazol-2-yl-benzenesulfonamide] | 14 | > 2360
O=S(=O)(Nc1nccs1)c1cc(Cl)c(NCCCCNCC2CCC(c3ccccc3)CN2)cc1F (centres unmarked) [Ex 8-14, 5-chloro-2-fluoro-4-[(4-{[(5-phenyl-piperidin-2-yl)-methyl]amino}butyl)amino]-N-1,3-thiazol-2-yl-benzenesulfonamide] | 14 | 2290
CO[C@H]1CN[C@H](CNCCCCNc2cc(F)c(S(=O)(=O)Nc3nccs3)cc2Cl)C1 [Ex 8-16] | 63 | > 520
